Source: the NIST ThermoML archive (doi:10.1016/j.jct.2009.11.010)

Experiments:
[1] = molar heat capacity at saturation pressure; conditions: Vacuum adiabatic calorimetry
[2] = for vapor or sublimation pressure: Inclined piston gauge
[3] = Molar enthalpy of transition or fusion; conditions: Crystal; Adiabatic calorimetry

c1ccc2nc3ccccc3nc2c1 [phenazine]
Conditions | Triple point temperature [K] | molar heat capacity [J/K/mol] | vapor or sublimation pressure [kPa]
[1], 112.24 K, Crystal | – | 79.93 | –
[1], 121.98 K, Crystal | – | 85.34 | –
[1], 131.78 K, Crystal | – | 90.96 | –
[1], 141.72 K, Crystal | – | 96.78 | –
[1], 148.27 K, Crystal | – | 100.69 | –
[1], 151.74 K, Crystal | – | 102.79 | –
[1], 157 K, Crystal | – | 106 | –
[1], 161.79 K, Crystal | – | 108.99 | –
[1], 166.83 K, Crystal | – | 112.14 | –
[1], 176.79 K, Crystal | – | 118.44 | –
[1], 186.88 K, Crystal | – | 124.97 | –
[1], 197.06 K, Crystal | – | 131.7 | –
[1], 207.29 K, Crystal | – | 138.54 | –
[1], 217.54 K, Crystal | – | 145.45 | –
[1], 227.79 K, Crystal | – | 152.5 | –
[1], 238.02 K, Crystal | – | 159.59 | –
[1], 248.23 K, Crystal | – | 166.76 | –
[1], 258.43 K, Crystal | – | 173.9 | –
[1], 268.62 K, Crystal | – | 181.08 | –
[1], 278.79 K, Crystal | – | 188.12 | –
[1], 288.98 K, Crystal | – | 195.25 | –
[1], 292.45 K, Crystal | – | 197.59 | –
[1], 299.09 K, Crystal | – | 202.31 | –
[1], 303.14 K, Crystal | – | 205.11 | –
[1], 315.26 K, Crystal | – | 213.62 | –
[1], 327.34 K, Crystal | – | 221.93 | –
[1], 339.58 K, Crystal | – | 230.27 | –
[1], 341.22 K, Crystal | – | 231.31 | –
[1], 351.33 K, Crystal | – | 238.27 | –
[1], 362.68 K, Crystal | – | 245.89 | –
[1], 375.17 K, Crystal | – | 254.22 | –
[1], 383.74 K, Crystal | – | 259.84 | –
[1], 387.73 K, Crystal | – | 262.47 | –
[1], 394.22 K, Crystal | – | 266.7 | –
[1], 400.35 K, Crystal | – | 270.7 | –
[1], 404.56 K, Crystal | – | 273.47 | –
[1], 413.04 K, Crystal | – | 278.97 | –
[1], 415.93 K, Crystal | – | 280.86 | –
[1], 426.29 K, Crystal | – | 287.62 | –
[1], 428.38 K, Crystal | – | 288.92 | –
[1], 438.38 K, Crystal | – | 296.29 | –
[1], 439.14 K, Crystal | – | 296.66 | –
[1], 453.29 K, Liquid | – | 334.17 | –
[1], 455.84 K, Liquid | – | 335.26 | –
[1], 456.63 K, Liquid | – | 335.61 | –
[1], 460.6 K, Liquid | – | 337.14 | –
[1], 461.49 K, Liquid | – | 337.63 | –
[1], 475.45 K, Liquid | – | 343.31 | –
[1], 490.19 K, Liquid | – | 349.18 | –
[1], 504.28 K, Liquid | – | 354.75 | –
[1], 510.36 K, Liquid | – | 357.26 | –
[1], 516.76 K, Liquid | – | 359.48 | –
[2], 389.95 K, Crystal | – | – | 0.0331
[2], 400.01 K, Crystal | – | – | 0.0682
[2], 410 K, Crystal | – | – | 0.1346
[2], 420 K, Crystal | – | – | 0.2572
[2], 430 K, Crystal | – | – | 0.476
[2], 449.96 K, Liquid | – | – | 1.444
[2], 454.97 K, Liquid | – | – | 1.754
[2], 460.06 K, Liquid | – | – | 2.127
[2], 464.96 K, Liquid | – | – | 2.548
[2], 469.96 K, Liquid | – | – | 3.05
[2], 471.96 K, Liquid | – | – | 3.273
[2], Crystal, Adiabatic calorimetry | 447.91 | – | –

Conditions | Molar enthalpy of transition or fusion [kcal/mol]
[3] | 5.956
